# Test results from PMC9516332 (Frontiers in Oncology, 2022).
# Where two headings read alike, the source gives them in different places.
# Experiments:
# Assay in all cases: Kinase panel profiling at 1 µmol/L (MSA or IMAP), percentage inhibition
# Type in all cases: biochemical
# [1] = molecular target: panel of 255 wild-type kinases (Homo sapiens, UniProt P51812); details: kinase RSK2; 1 µmol/L single concentration; read-out: %-inhibition at 1 µmol/L, RSK2
# [2] = molecular target: panel of 255 wild-type kinases (Homo sapiens, UniProt P54756); details: kinase EPHA5; 1 µmol/L single concentration; read-out: %-inhibition at 1 µmol/L, EPHA5
# [3] = molecular target: panel of 255 wild-type kinases (Homo sapiens, UniProt Q9UK32); details: kinase RSK4; 1 µmol/L single concentration; read-out: %-inhibition at 1 µmol/L, RSK4
# [4] = molecular target: panel of 255 wild-type kinases (Homo sapiens, UniProt Q9P0L2); details: MARK1; 1 µmol/L single concentration; read-out: %-inhibition, MARK1
# [5] = molecular target: panel of 255 wild-type kinases (Homo sapiens, UniProt P49137); details: kinase MAPKAPK2; 1 µmol/L single concentration; read-out: %-inhibition at 1 µmol/L, MAPKAPK2
# [6] = molecular target: panel of 255 wild-type kinases (Homo sapiens, UniProt P31751); details: AKT2 kinase assay; 1 µmol/L single concentration; read-out: %-inhibition AKT2
# [7] = molecular target: panel of 255 wild-type kinases (Homo sapiens, UniProt Q9BYP7); details: kinase WNK3; 1 µmol/L single concentration; read-out: %-inhibition at 1 µmol/L, WNK3
# [8] = molecular target: T1, panel of 255 wild-type kinases (Homo sapiens, UniProt Q8NE63); details: kinase HIPK4; 1 µmol/L single concentration; read-out: %-inhibition at 1 µmol/L, HIPK4
# T1 sequence (Q8NE63 1-616): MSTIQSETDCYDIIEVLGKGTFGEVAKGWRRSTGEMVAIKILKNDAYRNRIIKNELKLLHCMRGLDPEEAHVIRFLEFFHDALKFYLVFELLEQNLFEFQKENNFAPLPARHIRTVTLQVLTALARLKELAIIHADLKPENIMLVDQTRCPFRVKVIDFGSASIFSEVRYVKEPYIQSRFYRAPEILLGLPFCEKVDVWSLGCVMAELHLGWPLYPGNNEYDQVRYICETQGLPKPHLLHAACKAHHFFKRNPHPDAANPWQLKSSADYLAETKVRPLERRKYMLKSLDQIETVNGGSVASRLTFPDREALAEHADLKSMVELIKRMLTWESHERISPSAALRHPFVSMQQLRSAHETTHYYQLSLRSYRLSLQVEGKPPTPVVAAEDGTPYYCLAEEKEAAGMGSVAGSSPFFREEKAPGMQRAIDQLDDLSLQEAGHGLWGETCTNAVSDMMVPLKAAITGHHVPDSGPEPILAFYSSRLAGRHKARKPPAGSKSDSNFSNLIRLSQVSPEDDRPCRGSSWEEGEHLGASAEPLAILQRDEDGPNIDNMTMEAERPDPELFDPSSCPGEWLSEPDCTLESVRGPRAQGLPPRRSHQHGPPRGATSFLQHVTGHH
# [9] = molecular target: T2, panel of 255 wild-type kinases (Homo sapiens, UniProt O15264); details: p38δ; 1 µmol/L single concentration; read-out: %-inhibition, p38δ
# T2 sequence (O15264 1-365): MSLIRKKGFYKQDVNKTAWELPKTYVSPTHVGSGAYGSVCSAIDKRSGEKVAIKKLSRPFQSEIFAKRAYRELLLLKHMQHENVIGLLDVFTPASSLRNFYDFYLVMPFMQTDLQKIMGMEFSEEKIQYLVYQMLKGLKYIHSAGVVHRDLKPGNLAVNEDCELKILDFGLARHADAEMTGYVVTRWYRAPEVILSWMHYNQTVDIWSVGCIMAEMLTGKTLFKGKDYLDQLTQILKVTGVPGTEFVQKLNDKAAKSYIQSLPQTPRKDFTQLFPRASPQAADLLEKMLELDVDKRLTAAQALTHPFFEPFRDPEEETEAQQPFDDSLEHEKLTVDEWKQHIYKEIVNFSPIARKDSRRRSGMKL
# [10] = molecular target: panel of 255 wild-type kinases (Homo sapiens, UniProt Q15303); details: read-out: %-inhibition at 1 µmol/L, HER4
# [11] = molecular target: T3, panel of 255 wild-type kinases (Homo sapiens, UniProt P51817); details: kinase PRKX; 1 µmol/L single concentration; read-out: %-inhibition at 1 µmol/L, PRKX
# T3 sequence (P51817 1-358): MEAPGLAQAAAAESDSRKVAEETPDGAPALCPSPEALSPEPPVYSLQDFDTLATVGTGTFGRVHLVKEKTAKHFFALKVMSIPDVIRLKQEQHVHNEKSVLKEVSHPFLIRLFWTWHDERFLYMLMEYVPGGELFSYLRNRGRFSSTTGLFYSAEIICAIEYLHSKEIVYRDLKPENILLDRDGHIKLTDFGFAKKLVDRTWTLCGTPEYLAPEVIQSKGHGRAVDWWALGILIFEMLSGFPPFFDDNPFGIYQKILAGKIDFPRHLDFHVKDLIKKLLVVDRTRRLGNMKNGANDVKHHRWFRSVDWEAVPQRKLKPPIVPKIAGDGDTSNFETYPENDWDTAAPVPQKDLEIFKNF
# [12] = molecular target: panel of 255 wild-type kinases (Homo sapiens, UniProt O43683); details: BUB1/BUB3 kinase assay; 1 µmol/L single concentration; read-out: %-inhibition BUB1/BUB3
# [13] = molecular target: panel of 255 wild-type kinases (Homo sapiens, UniProt P09619); details: read-out: %-inhibition at 1 µmol/L, PDGFRβ
# [14] = kinase HER4, 1 µmol/L single concentration
# [15] = kinase PDGFRβ, 1 µmol/L single concentration
SMILES,inhibition at 1 µM [1] [%],inhibition at 1 µM [2] [%],inhibition at 1 µM [3] [%],inhibition at 1 µM [4] [%],inhibition at 1 µM [5] [%],inhibition at 1 µM [6] [%],inhibition at 1 µM [7] [%],inhibition at 1 µM [8] [%],inhibition at 1 µM [9] [%],"inhibition at 1 µM [10, 14] [%]",inhibition at 1 µM [11] [%],inhibition at 1 µM [12] [%],"inhibition at 1 µM [13, 15] [%]",inhibition at 1 µM [13] [%],inhibition at 1 µM [10] [%]
CO[C@]1(C(=O)N[C@@H](C)c2ccc(-n3cc(F)cn3)nc2)CC[C@H](c2nc(C)cc(Nc3cc(C)[nH]n3)n2)CC1 [pralsetinib],23,74,37,-13,-31,0.305,0.505,44,0.0555,53,-0.557,-0.908,99,,
COc1cc2ncnc(Nc3ccc(F)c(Cl)c3)c2cc1NC(=O)/C=C/CN1CCCCC1 [dacomitinib],8,34,16,-2,-40,-1.19,-2.62,85,0.0743,103,0.677,22,68,,
CCn1c(=O)c(-c2cc(NC(=O)Nc3ccccc3)c(F)cc2Br)cc2cnc(NC)cc21 [ripretinib],3.31,100,0.401,-0.571,-24,-5,-1.09,98,-0.186,36,0.705,2.76,,106,
Cc1nc(NC(=O)N2CCC[C@H]2C(N)=O)sc1-c1ccnc(C(C)(C)C(F)(F)F)c1 [alpelisib],-1.78,0.272,-4,-0.158,-16,-0.795,-3,64,-4.21,2,-4.49,-4.62,0.0362,,
C=CC(=O)N1CCC([C@@H]2CCNc3c(C(N)=O)c(-c4ccc(Oc5ccccc5)cc4)nn32)CC1 [zanubrutinib],-6,0.0392,-6,-6,-9,-4,5.7,7,-6.43,,-1,-6,3.39,,99
O=C(Nc1cnn2ccc(N3CCC[C@@H]3c3cc(F)ccc3F)nc12)N1CC[C@H](O)C1 [larotrectinib],-7.4,-0.0881,-7,-6.38,-13,-5.27,-0.6,6,-7,10,0.637,-6,-0.157,,
Cc1cc(Nc2ncnc3ccc(NC4=NC(C)(C)CO4)cc23)ccc1Oc1ccn2ncnc2c1 [tucatinib],-3,-13,0.229,-7,-28,-1.46,3,21,-0.0555,94,-1.54,0.842,31,,
FC(F)(F)c1ccc(CNc2ccc(Cc3c[nH]c4ncc(Cl)cc34)cn2)cn1 [pexidartinib],14,4,24,3,-32,-6,0.624,52,1.15,13,15,5.7,64,,
Cn1cnc2c(F)c(Nc3ccc(Br)cc3F)c(C(=O)NOCCO)cc21 [binimetinib],0.103,-2.36,-0.233,0.905,-13,0.0508,-2.67,-3.77,3.49,11,2.57,-3.43,-2.23,,
CN1CCN(c2ccc(C(=O)Nc3n[nH]c4ccc(Cc5cc(F)cc(F)c5)cc34)c(NC3CCOCC3)c2)CC1 [entrectinib],,53,,19,-14,-3.69,8.51,14,-3,32,2.19,-5.38,,,
COC(=O)N[C@@H](C)CNc1nccc(-c2cn(C(C)C)nc2-c2cc(Cl)cc(NS(C)(=O)=O)c2F)n1 [encorafenib],3.78,-2.32,4.58,2.71,-11,2,-1.55,59,5,14,1.82,6,1.38,,
C[C@H]1Oc2cc(cnc2N)-c2c(nn(C)c2C#N)CN(C)C(=O)c2ccc(F)cc21 [lorlatinib],-0.881,38,-2,11,-14,-2.31,6,2.62,-3.52,11,3.38,-5,2.32,,
